# Laboratory results reported in patent US20050197350A1, “Novel quinoline, tetrahydroquinazoline, and pyrimidine derivatives and methods of treatment related to the use thereof” (TAISHO PHARMACEUTICAL CO., LTD., priority 2003, published 2005).
# System: MCH receptors
# Test: MCH receptor activity class (method not given)
# Settings: class by percent of control at 10^-7 M or IC50
row,Structure (SMILES),class
1,COc1cc(CNC[C@H]2CC[C@@H](Nc3nccc(N(C)C)n3)CC2)cc(Br)c1OC [compound 1310],1 (Class 1: The value of percent of control at 10^−7 M was less than 40% or the value of IC50 was less than 50 nM.)
2,COc1ccc(CNC[C@H]2CC[C@@H](Nc3nccc(N(C)C)n3)CC2)cc1C [compound 1311],2 (Class 2: The value of percent of control at 10^−7 M was from 40% to 60% or the value of IC′50 was from 50 nM to 200 nM.)
3,COc1cc(Br)c(CNC[C@H]2CC[C@@H](Nc3nccc(N(C)C)n3)CC2)cc1OC [compound 1312],2 (Class 2: The value of percent of control at 10^−7 M was from 40% to 60% or the value of IC′50 was from 50 nM to 200 nM.)
4,Cc1oc(-c2ccccc2)cc1CNC[C@H]1CC[C@@H](Nc2nccc(N(C)C)n2)CC1 [compound 1313],3 (Class 3 The value of percent of control at 10^−7 M was more than 60% or the value of IC50 was more than 200 nM.)
5,COc1ccc(CNC[C@H]2CC[C@@H](Nc3nccc(N(C)C)n3)CC2)cc1OC [compound 1314],2 (Class 2: The value of percent of control at 10^−7 M was from 40% to 60% or the value of IC′50 was from 50 nM to 200 nM.)
6,Cc1cc(CNC[C@H]2CC[C@@H](Nc3nccc(N(C)C)n3)CC2)ccc1O [compound 1315],3 (Class 3 The value of percent of control at 10^−7 M was more than 60% or the value of IC50 was more than 200 nM.)
7,COc1cc(C)c(CNC[C@H]2CC[C@@H](Nc3nccc(N(C)C)n3)CC2)cc1C [compound 1316],2 (Class 2: The value of percent of control at 10^−7 M was from 40% to 60% or the value of IC′50 was from 50 nM to 200 nM.)
8,COc1cccc(CNC[C@H]2CC[C@@H](Nc3nccc(N(C)C)n3)CC2)c1O [compound 1317],3 (Class 3 The value of percent of control at 10^−7 M was more than 60% or the value of IC50 was more than 200 nM.)
9,CN(C)c1ccnc(N[C@H]2CC[C@@H](CNCc3cc(C(F)(F)F)cc(Cl)c3F)CC2)n1 [compound 1318],3 (Class 3 The value of percent of control at 10^−7 M was more than 60% or the value of IC50 was more than 200 nM.)
10,CN(C)c1ccnc(N[C@H]2CC[C@@H](CNCc3cc(F)cc(C(F)(F)F)c3)CC2)n1 [compound 1319],3 (Class 3 The value of percent of control at 10^−7 M was more than 60% or the value of IC50 was more than 200 nM.)
11,COc1cc(CNC[C@H]2CC[C@@H](Nc3nccc(N(C)C)n3)CC2)cc(F)c1O [compound 1320],3 (Class 3 The value of percent of control at 10^−7 M was more than 60% or the value of IC50 was more than 200 nM.)
12,COc1cc(F)c(CNC[C@H]2CC[C@@H](Nc3nccc(N(C)C)n3)CC2)cc1OC [compound 1321],3 (Class 3 The value of percent of control at 10^−7 M was more than 60% or the value of IC50 was more than 200 nM.)
13,CCc1ccccc1CNC[C@H]1CC[C@@H](Nc2nccc(N(C)C)n2)CC1 [compound 1322],3 (Class 3 The value of percent of control at 10^−7 M was more than 60% or the value of IC50 was more than 200 nM.)
14,CN(C)c1ccnc(N[C@H]2CC[C@@H](CNCc3ccc(N(C)CCC#N)cc3)CC2)n1 [compound 1323],2 (Class 2: The value of percent of control at 10^−7 M was from 40% to 60% or the value of IC′50 was from 50 nM to 200 nM.)
15,CN(C)c1ccnc(N[C@H]2CC[C@@H](CNCc3ccc(OCc4ccc(Br)cc4)cc3)CC2)n1 [compound 1324],2 (Class 2: The value of percent of control at 10^−7 M was from 40% to 60% or the value of IC′50 was from 50 nM to 200 nM.)
16,CCOc1c(Br)cc(Br)cc1CNC[C@H]1CC[C@@H](Nc2nccc(N(C)C)n2)CC1 [compound 1325],2 (Class 2: The value of percent of control at 10^−7 M was from 40% to 60% or the value of IC′50 was from 50 nM to 200 nM.)
17,COc1cccc(OC)c1CN[C@H]1CC[C@@H](Nc2nc3c(c(N(C)C)n2)CCCC3)CC1 [compound 1326],3 (Class 3 The value of percent of control at 10^−7 M was more than 60% or the value of IC50 was more than 200 nM.)
18,CCOc1ccccc1CN[C@H]1CC[C@@H](Nc2nc3c(c(N(C)C)n2)CCCC3)CC1 [compound 1327],3 (Class 3 The value of percent of control at 10^−7 M was more than 60% or the value of IC50 was more than 200 nM.)
19,CN(C)c1nc(N[C@H]2CC[C@@H](NCc3c[nH]c4ccccc34)CC2)nc2c1CCCC2 [compound 1328],3 (Class 3 The value of percent of control at 10^−7 M was more than 60% or the value of IC50 was more than 200 nM.)
20,COc1ccc(OC)c(CN[C@H]2CC[C@@H](Nc3nc4c(c(N(C)C)n3)CCCC4)CC2)c1 [compound 1329],3 (Class 3 The value of percent of control at 10^−7 M was more than 60% or the value of IC50 was more than 200 nM.)
21,COc1ccc(CN[C@H]2CC[C@@H](Nc3nc4c(c(N(C)C)n3)CCCC4)CC2)c2ccccc12 [compound 1330],3 (Class 3 The value of percent of control at 10^−7 M was more than 60% or the value of IC50 was more than 200 nM.)
22,COc1ccc2[nH]cc(CN[C@H]3CC[C@@H](Nc4nc5c(c(N(C)C)n4)CCCC5)CC3)c2c1 [compound 1331],1 (Class 1: The value of percent of control at 10^−7 M was less than 40% or the value of IC50 was less than 50 nM.)

row,Structure (SMILES),class
1,COc1ccc2ccccc2c1CN[C@H]1CC[C@@H](Nc2nc3c(c(N(C)C)n2)CCCC3)CC1 [compound 1332],3 (Class 3 The value of percent of control at 10^−7 M was more than 60% or the value of IC50 was more than 200 nM.)
2,COc1cc(Br)cc(CN[C@H]2CC[C@@H](Nc3nc4c(c(N(C)C)n3)CCCC4)CC2)c1O [compound 1333],3 (Class 3 The value of percent of control at 10^−7 M was more than 60% or the value of IC50 was more than 200 nM.)
3,CN(C)c1nc(N[C@H]2CC[C@@H](NCc3c[nH]c4ccc(Br)cc34)CC2)nc2c1CCCC2 [compound 1334],3 (Class 3 The value of percent of control at 10^−7 M was more than 60% or the value of IC50 was more than 200 nM.)
4,COc1ccc(CN[C@H]2CC[C@@H](Nc3nc4c(c(N(C)C)n3)CCCC4)CC2)c(OC)c1 [compound 1335],3 (Class 3 The value of percent of control at 10^−7 M was more than 60% or the value of IC50 was more than 200 nM.)
5,COc1ccc(CN[C@H]2CC[C@@H](Nc3nc4c(c(N(C)C)n3)CCCC4)CC2)c(OC)c1OC [compound 1336],3 (Class 3 The value of percent of control at 10^−7 M was more than 60% or the value of IC50 was more than 200 nM.)
6,COc1cc(CN[C@H]2CC[C@@H](Nc3nc4c(c(N(C)C)n3)CCCC4)CC2)cc(OC)c1O [compound 1337],2 (Class 2: The value of percent of control at 10^−7 M was from 40% to 60% or the value of IC′50 was from 50 nM to 200 nM.)
7,CCOc1cc(CN[C@H]2CC[C@@H](Nc3nc4c(c(N(C)C)n3)CCCC4)CC2)ccc1OC [compound 1338],3 (Class 3 The value of percent of control at 10^−7 M was more than 60% or the value of IC50 was more than 200 nM.)
8,CN(C)c1nc(N[C@H]2CC[C@@H](NCc3c[nH]nc3-c3ccc(C(F)(F)F)cc3)CC2)nc2c1CCCC2 [compound 1339],3 (Class 3 The value of percent of control at 10^−7 M was more than 60% or the value of IC50 was more than 200 nM.)
9,COc1cc(CN[C@H]2CC[C@@H](Nc3nc4c(c(N(C)C)n3)CCCC4)CC2)cc(OC)c1OC [compound 1340],3 (Class 3 The value of percent of control at 10^−7 M was more than 60% or the value of IC50 was more than 200 nM.)
10,COc1cc(CN[C@H]2CC[C@@H](Nc3nc4c(c(N(C)C)n3)CCCC4)CC2)cc(OC)c1 [compound 1342],2 (Class 2: The value of percent of control at 10^−7 M was from 40% to 60% or the value of IC′50 was from 50 nM to 200 nM.)
11,COc1cc(CN[C@H]2CC[C@@H](Nc3nc4c(c(N(C)C)n3)CCCC4)CC2)cc(I)c1O [compound 1343],2 (Class 2: The value of percent of control at 10^−7 M was from 40% to 60% or the value of IC′50 was from 50 nM to 200 nM.)
12,Cc1cc(CN[C@H]2CC[C@@H](Nc3nc4c(c(N(C)C)n3)CCCC4)CC2)cc(C)c1O [compound 1344],3 (Class 3 The value of percent of control at 10^−7 M was more than 60% or the value of IC50 was more than 200 nM.)
13,COc1cccc(CN[C@H]2CC[C@@H](Nc3nc4c(c(N(C)C)n3)CCCC4)CC2)c1 [compound 1345],3 (Class 3 The value of percent of control at 10^−7 M was more than 60% or the value of IC50 was more than 200 nM.)
14,CN(C)c1nc(N[C@H]2CC[C@@H](NCc3ccc(F)c(Br)c3)CC2)nc2c1CCCC2 [compound 1346],3 (Class 3 The value of percent of control at 10^−7 M was more than 60% or the value of IC50 was more than 200 nM.)
15,CC(CCN[C@H]1CC[C@@H](Nc2nc3c(c(N(C)C)n2)CCCC3)CC1)c1ccccc1 (stereo partly shown) [compound 1347],3 (Class 3 The value of percent of control at 10^−7 M was more than 60% or the value of IC50 was more than 200 nM.)
16,Cc1ccc2occ(CN[C@H]3CC[C@@H](Nc4nc5c(c(N(C)C)n4)CCCC5)CC3)c(=O)c2c1 [compound 1348],3 (Class 3 The value of percent of control at 10^−7 M was more than 60% or the value of IC50 was more than 200 nM.)
17,Cc1cc2occ(CN[C@H]3CC[C@@H](Nc4nc5c(c(N(C)C)n4)CCCC5)CC3)c(=O)c2cc1Cl [compound 1349],3 (Class 3 The value of percent of control at 10^−7 M was more than 60% or the value of IC50 was more than 200 nM.)
18,Cc1cc(C)c2occ(CN[C@H]3CC[C@@H](Nc4nc5c(c(N(C)C)n4)CCCC5)CC3)c(=O)c2c1 [compound 1350],2 (Class 2: The value of percent of control at 10^−7 M was from 40% to 60% or the value of IC′50 was from 50 nM to 200 nM.)
19,Cc1cc(CN[C@H]2CC[C@@H](Nc3nc4c(c(N(C)C)n3)CCCC4)CC2)c(C)n1-c1ccccc1 [compound 1351],3 (Class 3 The value of percent of control at 10^−7 M was more than 60% or the value of IC50 was more than 200 nM.)
20,CCCCC/C(=C\c1ccccc1)CN[C@H]1CC[C@@H](Nc2nc3c(c(N(C)C)n2)CCCC3)CC1 [compound 1353],3 (Class 3 The value of percent of control at 10^−7 M was more than 60% or the value of IC50 was more than 200 nM.)
21,COc1ccccc1/C=C/CN[C@H]1CC[C@@H](Nc2nc3c(c(N(C)C)n2)CCCC3)CC1 [compound 1354],3 (Class 3 The value of percent of control at 10^−7 M was more than 60% or the value of IC50 was more than 200 nM.)
